Data as given in US7427620B2, “Azole derivative useful as antifungal agents with reduced interaction with metabolic cytochromes” (Italfarmaco SPA, priority 2003, dated 2008).

Tests used:
[1] = tested on: Candida albicans; assay: Antifungal activity, liquid phase microdilution (NCCLS M27/M38-P); assay type: cell-based
Experimental: (§1) Experiment A: Antifungal Activity of Compounds of the Formula (I)
(§2) The antifungal activity of the compounds of the formula (I) was determined using various strains of yeast and filamentous fungi. […] Table no.

[2] = tested on: Candida glabrata; assay: as above; assay type: cell-based; settings: Candida glabrata strain 02-0902
Experimental: as §1, §2

[3] = tested on: Candida parapsilosis; assay: as above; assay type: cell-based; settings: Candida parapsilosis strain ATCC22019
Experimental: as §1, §2

[4] = tested on: Aspergillus fumigatus; assay: as above; assay type: cell-based; set-up: IC50 (minimum concentration to bring about 50% inhibition): unit not given here
Experimental: as §1, §2

[5] = target: T1, CYP1A2 (Homo sapiens, UniProt P05177); assay: Inhibition of human cytochromes, fluorescent substrates; assay type: in vitro ADME; settings: isoenzyme (Gentest), 37° C.
T1 construct: purchased Gentest
T1 sequence (P05177 1-516): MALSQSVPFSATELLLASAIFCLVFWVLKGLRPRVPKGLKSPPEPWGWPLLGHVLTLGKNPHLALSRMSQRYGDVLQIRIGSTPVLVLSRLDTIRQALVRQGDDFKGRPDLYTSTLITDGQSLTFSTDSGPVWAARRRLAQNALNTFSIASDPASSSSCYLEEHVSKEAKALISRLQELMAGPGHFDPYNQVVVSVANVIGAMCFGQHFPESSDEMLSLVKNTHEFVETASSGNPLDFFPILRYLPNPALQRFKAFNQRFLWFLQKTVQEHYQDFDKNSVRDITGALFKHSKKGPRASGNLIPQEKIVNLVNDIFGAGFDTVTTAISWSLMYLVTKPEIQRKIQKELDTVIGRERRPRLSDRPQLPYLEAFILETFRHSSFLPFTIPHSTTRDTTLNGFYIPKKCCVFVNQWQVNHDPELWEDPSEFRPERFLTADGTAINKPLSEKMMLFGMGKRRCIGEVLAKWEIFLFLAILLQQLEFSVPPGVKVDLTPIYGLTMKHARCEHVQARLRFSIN
Experimental: (§3) Experiment B: Inhibition of Human Cytochromes by Compounds of the Formula (I)
(§4) Inhibition of the enzymatic activity of the most significant isoforms of human cytochromes by the compounds of the formula (I) was measured by using specific substrates which become fluorescent as a result of the metabolic action of a particular cytochrome isoform. The individual isoenzymes (Gentest) and the respective substrates were incubated in 96 well plates in buffer containing […] at 37° C. in the presence or absence of the compound under investigation. […] The degree of inhibition of each individual isoenzyme by known inhibitors was also assessed as a positive control.

[6] = target: T2, CYP2C19 (Homo sapiens, UniProt P33261); assay: as above; assay type: in vitro ADME; settings: isoenzyme (Gentest), 37° C.
T2 construct: purchased Gentest
Experimental: as §3, §4

[7] = target: T3, CYP2C9 (Homo sapiens, UniProt P11712); assay: as above; assay type: in vitro ADME; settings: isoenzyme (Gentest), 37° C.
T3 construct: purchased Gentest
Experimental: as §3, §4

[8] = target: T4, CYP2D6 (Homo sapiens, UniProt P10635); assay: as above; assay type: in vitro ADME; settings: isoenzyme (Gentest), 37° C.
T4 construct: purchased Gentest
Experimental: as §3, §4

[9] = target: T5, CYP3A4 (Homo sapiens, UniProt P08684); assay: as above; assay type: in vitro ADME; settings: isoenzyme (Gentest), 37° C.
T5 construct: purchased Gentest
Experimental: as §3
The individual isoenzymes (Gentest) and the respective substrates were incubated in 96 well plates in buffer containing […] at 37° C. in the presence or absence of the compound under investigation. […] The degree of inhibition of each individual isoenzyme by known inhibitors was also assessed as a positive control.

[10] = tested on: Candida albicans; assay: Mouse model of systemic candidiasis, survival; assay type: in vivo, CD1 mice; settings: for Average survival (days) ± S.D.: observed until day 30
Experimental: Experiment C: Study of the Efficacy of Compounds of the Formula (I) in a Mouse Model of Systemic Candidiasis.
The C. albicans isolate was cultured for 24 h in yeast dextrose broth. The blastospores were recovered by centrifugation, repeatedly washed in sterile saline solution and the inoculum adjusted to the desired concentration. The inoculum was verified by a subsequent count of CFU/ml on Sabouraud plates.
The mice were then inoculated intravenously (0.2 ml/mouse).
24 hours after inoculation with C. albicans, the animals were randomised into the following treatment groups (10 mice/group): • 1. […] Compound under investigation: 50 mg/kg/day (two 25 mg/kg treatments twice daily at 12 hour intervals) • 3. Compound under investigation; 10 mg/kg/day (two 5 mg/kg treatments twice daily at 12 hour intervals) • 4. Control (placebo)
The compounds were administered orally (suspension in PEG 200, 0.2 ml/mouse) for 10 consecutive days and the animals were observed until day 30. The survival curves between the various treatment groups and between these groups and the control group were evaluated using the Kaplan-Meier method.

[11] = 10 mg/kg/day orally (5 mg/kg twice daily) for 10 days
[12] = 50 mg/kg/day orally (25 mg/kg twice daily) for 10 days

T3 sequence (P11712 whole entry): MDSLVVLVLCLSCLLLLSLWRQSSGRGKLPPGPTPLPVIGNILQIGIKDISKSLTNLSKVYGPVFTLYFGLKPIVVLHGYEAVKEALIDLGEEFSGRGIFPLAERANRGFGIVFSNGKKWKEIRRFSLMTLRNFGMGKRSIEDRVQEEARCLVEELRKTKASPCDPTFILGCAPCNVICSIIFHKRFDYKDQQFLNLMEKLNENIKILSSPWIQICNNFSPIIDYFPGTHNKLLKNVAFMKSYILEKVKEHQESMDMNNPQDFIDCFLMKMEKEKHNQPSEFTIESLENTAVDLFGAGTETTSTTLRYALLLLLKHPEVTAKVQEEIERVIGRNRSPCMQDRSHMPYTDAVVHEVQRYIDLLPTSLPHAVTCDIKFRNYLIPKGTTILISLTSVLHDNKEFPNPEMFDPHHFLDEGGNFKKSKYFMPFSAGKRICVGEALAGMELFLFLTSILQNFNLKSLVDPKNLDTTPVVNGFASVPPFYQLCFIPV
T5 sequence (P08684 whole entry): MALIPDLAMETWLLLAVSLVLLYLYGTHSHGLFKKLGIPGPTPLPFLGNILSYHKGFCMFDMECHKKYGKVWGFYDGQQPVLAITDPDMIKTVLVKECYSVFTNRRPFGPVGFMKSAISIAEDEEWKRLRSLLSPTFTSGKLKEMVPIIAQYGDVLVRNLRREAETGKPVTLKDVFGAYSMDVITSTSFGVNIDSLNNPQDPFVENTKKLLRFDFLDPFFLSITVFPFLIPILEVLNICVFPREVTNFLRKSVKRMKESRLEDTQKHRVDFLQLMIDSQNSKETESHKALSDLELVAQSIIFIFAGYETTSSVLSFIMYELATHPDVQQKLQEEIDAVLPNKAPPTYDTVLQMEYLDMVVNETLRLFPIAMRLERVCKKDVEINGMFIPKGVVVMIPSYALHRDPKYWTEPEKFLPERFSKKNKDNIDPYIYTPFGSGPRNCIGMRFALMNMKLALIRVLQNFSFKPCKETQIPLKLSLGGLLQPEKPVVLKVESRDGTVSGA
T2 sequence (P33261 whole entry): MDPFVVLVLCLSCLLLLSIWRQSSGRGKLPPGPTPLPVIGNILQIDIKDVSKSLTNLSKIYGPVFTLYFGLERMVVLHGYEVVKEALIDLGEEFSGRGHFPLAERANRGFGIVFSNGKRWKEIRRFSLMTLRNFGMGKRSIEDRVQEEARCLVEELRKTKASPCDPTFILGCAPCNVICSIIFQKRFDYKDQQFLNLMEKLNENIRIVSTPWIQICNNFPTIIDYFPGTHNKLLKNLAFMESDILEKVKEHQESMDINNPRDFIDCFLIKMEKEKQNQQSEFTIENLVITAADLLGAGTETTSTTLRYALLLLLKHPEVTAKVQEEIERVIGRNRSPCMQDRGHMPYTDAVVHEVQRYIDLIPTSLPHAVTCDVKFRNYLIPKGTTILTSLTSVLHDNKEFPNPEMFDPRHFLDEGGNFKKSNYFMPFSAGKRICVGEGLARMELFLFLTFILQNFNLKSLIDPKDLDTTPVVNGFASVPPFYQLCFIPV
T4 sequence (P10635 whole entry): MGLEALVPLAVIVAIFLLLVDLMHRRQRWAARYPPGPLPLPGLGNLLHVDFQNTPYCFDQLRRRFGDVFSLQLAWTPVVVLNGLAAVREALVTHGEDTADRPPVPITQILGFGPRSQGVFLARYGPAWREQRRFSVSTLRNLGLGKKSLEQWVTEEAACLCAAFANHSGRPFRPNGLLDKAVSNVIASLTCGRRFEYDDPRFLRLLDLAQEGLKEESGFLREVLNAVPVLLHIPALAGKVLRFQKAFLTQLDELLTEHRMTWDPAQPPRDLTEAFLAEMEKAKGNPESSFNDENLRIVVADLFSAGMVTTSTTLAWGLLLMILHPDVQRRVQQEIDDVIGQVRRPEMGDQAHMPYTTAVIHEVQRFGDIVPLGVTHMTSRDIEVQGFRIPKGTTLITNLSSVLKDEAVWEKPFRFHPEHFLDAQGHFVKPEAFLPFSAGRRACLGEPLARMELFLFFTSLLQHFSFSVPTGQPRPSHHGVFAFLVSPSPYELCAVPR

With “cis(±)-4-{4-[4-{4-[2-(pyridin-2-yl)-2-(1H-1,2,4-triazol-1-ylmethyl)-1,3-dioxolan-4-yl-methoxy]phenyl}-1-piperazinyl]-phenyl}-2-(1-(R,S)methylpropyl)-2,4-dihydro-3H-1,2,4-triazol-3-one [Example 9]” the “IC50 (minimum concentration to bring about 50% inhibition)” value ([1]; Candida albicans strain 21) was 39 mg/mL, the “IC50 (minimum concentration to bring about 50% inhibition)” value ([1]; Candida albicans strain gen-45) was “≦0.03 mg/ml” and the “IC50 (minimum concentration to bring about 50% inhibition)” value [2] was 1 mg/mL. For the same substance, the “IC50 (minimum concentration to bring about 50% inhibition)” value [3] was “≦0.03 mg/ml”, the “IC50 (minimum concentration to bring about 50% inhibition)” value ([4]; Aspergillus fumigatus strain 34) was 0.25 and the “IC50 (minimum concentration to bring about 50% inhibition)” value ([4]; Aspergillus fumigatus strain 99-2135) was 0.25. The IC50 [5] was greater than 100 µM, the IC50 [6] was 40.7 ± 12.7 µM and the IC50 [7] was 54.1 ± 5.2 µM. The IC50 [8] was greater than 100 µM, the IC50 [9] was 0.22 ± 0.05 µM and the “Surviving mice 21 days after infection” value [10, 11] was 0%. For the same substance, the “Average survival (days) ± S.D.” value [10, 11] was 6.6 ± 0.8 days, the “Surviving mice 21 days after infection” value [10, 12] was 10% and the “Average survival (days) ± S.D.” value [10, 12] was 9.1 ± 1.5 days.
